From patent US20260001914A1, “MACROCYCLIC PEPTIDES TARGETING KRAS” (Merck Sharp & Dohme LLC, priority 2022, published 2026)
*1 amine or outer side, *2 acyl side, *3 side chain or, on linkers, in order; H or OH if unused. Where a SMILES comes first, the peptide text is derived from it. Bridges are numbered along the chain shown (N, C = ends). [ ]: non-standard residue; d: D form. The star is where a group is joined. X82 = CS(=O)(=O)c1ncc(C[C@H](N[*:1])C(=O)[*:2])cn1; X55 = O=C([C@H](Cc1coc(-c2ccccc2)n1)N[*:1])[*:2]; Phe(3,4-Cl2) = N[C@@H](Cc1ccc(Cl)c(Cl)c1)C(=O)O; X77 = O=C([C@H](Cc1cnn(C2CCOCC2)c1)N[*:1])[*:2]; Ala(pyrimidin-5-yl) = N[C@@H](Cc1cncnc1)C(=O)O; X71 = COc1c(F)cc(C[C@H](N[*:1])C(=O)[*:2])cc1F; X6 = O=C([C@H](Cc1cnn(C2COC2)c1)N[*:1])[*:2]; X81 = Cc1ccc(C[C@H](N[*:1])C(=O)[*:2])c(F)n1; Ala(2-pyrazinyl) = N[C@@H](Cc1cnccn1)C(=O)O; Ala(thiazol-2-yl) = N[C@@H](Cc1nccs1)C(=O)O; NMePhe(3-Me) = CN[C@@H](Cc1cccc(C)c1)C(=O)O; X51 = COc1cc(C[C@H](N[*:1])C(=O)[*:2])ncn1; X67 = O=C([C@H](Cc1ncc(Cl)cn1)N[*:1])[*:2]; X57 = Cn1ccc(C[C@H](N[*:1])C(=O)[*:2])n1; Ethyl(2-pyrrolidin-1-yl) = C1CCN(CC*)C1; Phe(3-F) = N[C@@H](Cc1cccc(F)c1)C(=O)O; 1Nal = N[C@@H](Cc1cccc2ccccc12)C(=O)O; Phe(2-F) = N[C@@H](Cc1ccccc1F)C(=O)O; X31 = O=C([C@H](CCC1CC1)N[*:1])[*:2]; Abu(4,4-F2) = N[C@@H](CC(F)F)C(=O)O; NMe3Pal = CN[C@@H](Cc1cccnc1)C(=O)O; X1 = O=C(C12CC(CN[*:1])(C1)C2)[*:2]; Ala(cPr) = N[C@@H](CC1CC1)C(=O)O; NMeF = CN[C@@H](Cc1ccccc1)C(=O)O; PhLac = O=C(O)[C@@H](O)Cc1ccccc1; 4Pal = N[C@@H](Cc1ccncc1)C(=O)O; 3Thi = N[C@@H](Cc1ccsc1)C(=O)O; Cba = N[C@@H](CC1CCC1)C(=O)O; hLeu = CC(C)CC[C@H](N)C(=O)O; αMeC = C[C@](N)(CS)C(=O)O; NMeA = CN[C@@H](C)C(=O)O; Nle = CCCC[C@H](N)C(=O)O; CHF2 = FC(F)*

The compounds below were run against KRAS-G12D protein (Homo sapiens, UniProt P01116, G12D) (assay: SOS-mediated nucleotide exchange assay (BODIPY-GDP / Tb-streptavidin TR-FRET)).
KRAS-G12D protein, sequence (P01116 1-188 isoform P01116-2 G12D): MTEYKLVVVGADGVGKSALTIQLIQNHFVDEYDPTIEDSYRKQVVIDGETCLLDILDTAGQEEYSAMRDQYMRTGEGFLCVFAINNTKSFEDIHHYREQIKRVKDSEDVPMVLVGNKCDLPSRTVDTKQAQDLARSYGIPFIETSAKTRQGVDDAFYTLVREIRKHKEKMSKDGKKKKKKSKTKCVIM
Format: biochemical

SMILES	EC50
CC(C)CC[C@@H]1NC(=O)[C@H](Cc2ccccc2F)NC(=O)[C@H](CC2CC2)NC(=O)[C@H](Cc2cnn(C3COC3)c2)NC(=O)[C@H](C)N(C)C(=O)[C@H](Cc2ccccc2)OC(=O)C23CC(CNC(=O)[C@H](Cc4cccnc4)N(C)C1=O)(C2)C3 [compound 301, cyclo(FLac-NMeA-AlaPyz1Ox-cPrA-Phe2F-hL-NMe3Pal-amBCP)] (cyclo([Ala(cPr)][Phe(2-F)][hLeu][NMe3Pal][X1][PhLac][NMeA][X6]))	2.17 nM
CC(C)CC[C@@H]1NC(=O)[C@H](Cc2cccc(F)c2)NC(=O)[C@H](CC2CCC2)NC(=O)[C@H](Cc2cncnc2)NC(=O)[C@H](C)N(C)C(=O)[C@H](Cc2ccccc2)OC(=O)C23CC(CNC(=O)[C@H](Cc4ccccc4)N(C)C1=O)(C2)C3 [compound 303, cyclo(FLac-NMeA-PyrimAla-cBuA-Phe3F-hL-NMeF-amBCP)] (cyclo([Cba][Phe(3-F)][hLeu][NMeF][X1][PhLac][NMeA][Ala(pyrimidin-5-yl)]))	60.9 nM
CC(C)CC[C@@H]1NC(=O)[C@H](Cc2ccccc2F)NC(=O)[C@H](CC(F)F)NC(=O)[C@H](Cc2cncnc2)NC(=O)[C@H](C)N(C)C(=O)[C@H](Cc2ccccc2)OC(=O)C23CC(CNC(=O)[C@H](Cc4ccccc4)N(C)C1=O)(C2)C3 [compound 304, cyclo(FLac-NMeA-PyrimAla-AbuF2-Phe2F-hL-NMeF-amBCP)] (cyclo([NMeA][Ala(pyrimidin-5-yl)][Abu(4,4-F2)][Phe(2-F)][hLeu][NMeF][X1][PhLac]))	17.2 nM
CCCC[C@@H]1NC(=O)[C@H](Cc2ccccc2)NC(=O)[C@H](C)N(C)C(=O)[C@H](Cc2ccccc2)OC(=O)C23CC(CNC(=O)[C@H](Cc4ccccc4)N(C)C(=O)[C@H](CCCC)NC(=O)[C@H](Cc4ccccc4F)NC1=O)(C2)C3 [compound 305, cyclo(FLac-NMeA-F-Nle-Phe2F-Nle-NMeF-amBCP)] (cyclo(F[Nle][Phe(2-F)][Nle][NMeF][X1][PhLac][NMeA]))	1790 nM
CCCC[C@@H]1NC(=O)[C@H](Cc2cc(OC)ncn2)NC(=O)[C@H](C)N(C)C(=O)[C@H](Cc2ccccc2)OC(=O)C23CC(CNC(=O)[C@H](Cc4ccccc4)N(C)C(=O)[C@H](CCCC)NC(=O)[C@H](Cc4ccccc4F)NC1=O)(C2)C3 [compound 306, cyclo(FLac-NMeA-Ala6Pyrim4OMe-Nle-Phe2F-Nle-NMeF-amBCP)] (cyclo([NMeA][X51][Nle][Phe(2-F)][Nle][NMeF][X1][PhLac]))	7000 nM
CCCC[C@@H]1NC(=O)[C@H](Cc2coc(-c3ccccc3)n2)NC(=O)[C@H](C)N(C)C(=O)[C@H](Cc2ccccc2)OC(=O)C23CC(CNC(=O)[C@H](Cc4ccccc4)N(C)C(=O)[C@H](CCCC)NC(=O)[C@H](Cc4ccccc4F)NC1=O)(C2)C3 [compound 307, cyclo(FLac-NMcA-AlaOxz2Ph-Nle-Phe2F-Nle-NMeF-amBCP)] (cyclo([NMeA][X55][Nle][Phe(2-F)][Nle][NMeF][X1][PhLac]))	155 nM
CCCC[C@@H]1NC(=O)[C@H](Cc2cnn(C3CCOCC3)c2)NC(=O)[C@H](C)N(C)C(=O)[C@H](Cc2ccccc2)OC(=O)C23CC(CNC(=O)[C@H](Cc4ccccc4)N(C)C(=O)[C@H](CCCC)NC(=O)[C@H](Cc4ccccc4F)NC1=O)(C2)C3 [compound 308, cyclo(FLac-NMeA-AlaPyzlTHP4-Nle-Phe2F-Nle-NMeF-amBCP)] (cyclo([NMeA][X77][Nle][Phe(2-F)][Nle][NMeF][X1][PhLac]))	6.86 nM
CCCC[C@@H]1NC(=O)[C@H](Cc2ccc(Cl)c(Cl)c2)NC(=O)[C@H](C)N(C)C(=O)[C@H](Cc2ccccc2)OC(=O)C23CC(CNC(=O)[C@H](Cc4ccccc4)N(C)C(=O)[C@H](CCCC)NC(=O)[C@H](Cc4ccccc4F)NC1=O)(C2)C3 [compound 309, cyclo(FLac-NMeA-Phe34Cl2-Nle-Phe2F-Nle-NMeF-amBCP)] (cyclo([NMeA][Phe(3,4-Cl2)][Nle][Phe(2-F)][Nle][NMeF][X1][PhLac]))	108 nM
CCCC[C@@H]1NC(=O)[C@H](Cc2cc(F)c(OC)c(F)c2)NC(=O)[C@H](C)N(C)C(=O)[C@H](Cc2ccccc2)OC(=O)C23CC(CNC(=O)[C@H](Cc4ccccc4)N(C)C(=O)[C@H](CCCC)NC(=O)[C@H](Cc4ccccc4F)NC1=O)(C2)C3 [compound 310, cyclo(FLac-NMeA-TyrOMe35F2-Nle-Phe2F-Nle-NMeF-amBCP)] (cyclo([NMeA][X71][Nle][Phe(2-F)][Nle][NMeF][X1][PhLac]))	140 nM
CCCC[C@@H]1NC(=O)[C@H](Cc2ccc(C)nc2F)NC(=O)[C@H](C)N(C)C(=O)[C@H](Cc2ccccc2)OC(=O)C23CC(CNC(=O)[C@H](Cc4ccccc4)N(C)C(=O)[C@H](CCCC)NC(=O)[C@H](Cc4ccccc4F)NC1=O)(C2)C3 [compound 311, cyclo(FLac-NMeA-3Pal2F4Me-Nle-Phe2F-Nle-NMeF-amBCP)] (cyclo([NMeA][X81][Nle][Phe(2-F)][Nle][NMeF][X1][PhLac]))	892 nM
CCCC[C@@H]1NC(=O)[C@H](Cc2ccc(OC(F)F)cc2)NC(=O)[C@H](C)N(C)C(=O)[C@H](Cc2ccccc2)OC(=O)C23CC(CNC(=O)[C@H](Cc4ccccc4)N(C)C(=O)[C@H](CCCC)NC(=O)[C@H](Cc4ccccc4F)NC1=O)(C2)C3 [compound 312, cyclo(FLac-NMeA-TyrOCF2-Nle-Phe2F-Nle-NMeF-amBCP)] (cyclo([NMeA]Y(CHF2)[Nle][Phe(2-F)][Nle][NMeF][X1][PhLac]))	966 nM
CCCC[C@@H]1NC(=O)[C@H](Cc2cnc(S(C)(=O)=O)nc2)NC(=O)[C@H](C)N(C)C(=O)[C@H](Cc2ccccc2)OC(=O)C23CC(CNC(=O)[C@H](Cc4ccccc4)N(C)C(=O)[C@H](CCCC)NC(=O)[C@H](Cc4ccccc4F)NC1=O)(C2)C3 [compound 313, cyclo(FLac-NMeA-AlaPyrim4SO2Me-Nle-Phe2F-Nle-NMeF-amBCP)] (cyclo([NMeA][X82][Nle][Phe(2-F)][Nle][NMeF][X1][PhLac]))	5.22 nM
CCCC[C@@H]1NC(=O)[C@H](Cc2ccc(OCCN3CCCC3)cc2)NC(=O)[C@H](C)N(C)C(=O)[C@H](Cc2ccccc2)OC(=O)C23CC(CNC(=O)[C@H](Cc4ccccc4)N(C)C(=O)[C@H](CCCC)NC(=O)[C@H](Cc4ccccc4F)NC1=O)(C2)C3 [compound 316, cyclo(FLac-NMeA-TyrOEtPyr-Nle-Phe2F-Nle-NMeF-amBCP)] (cyclo([NMeA]Y(Ethyl(2-pyrrolidin-1-yl))[Nle][Phe(2-F)][Nle][NMeF][X1][PhLac]))	7.34 nM
CCCC[C@@H]1NC(=O)[C@H](Cc2cnn(C3COC3)c2)NC(=O)[C@H](C)N(C)C(=O)[C@H](Cc2ccccc2)OC(=O)C23CC(CNC(=O)[C@H](Cc4ccccc4)N(C)C(=O)[C@H](CCCC)NC(=O)[C@H](Cc4ccccc4F)NC1=O)(C2)C3 [compound 317, cyclo(FLac-NMeA-AlaPyz1Ox-Nle-Phe2F-Nle-NMeF-amBCP)] (cyclo([NMeA][X6][Nle][Phe(2-F)][Nle][NMeF][X1][PhLac]))	22.7 nM
CCCC[C@@H]1NC(=O)[C@H](Cc2ccsc2)NC(=O)[C@H](C)N(C)C(=O)[C@H](Cc2ccccc2)OC(=O)C23CC(CNC(=O)[C@H](Cc4ccccc4)N(C)C(=O)[C@H](CCCC)NC(=O)[C@H](Cc4ccccc4F)NC1=O)(C2)C3 [compound 318, cyclo(FLac-NMeA-3Thi-Nle-Phe2F-Nle-NMeF-amBCP)] (cyclo([3Thi][Nle][Phe(2-F)][Nle][NMeF][X1][PhLac][NMeA]))	527 nM
CCCC[C@@H]1NC(=O)[C@H](Cc2ccn(C)n2)NC(=O)[C@H](C)N(C)C(=O)[C@H](Cc2ccccc2)OC(=O)C23CC(CNC(=O)[C@H](Cc4ccccc4)N(C)C(=O)[C@H](CCCC)NC(=O)[C@H](Cc4ccccc4F)NC1=O)(C2)C3 [compound 319, cyclo(FLac-NMeA-MePyzAla-Nle-Phe2F-Nle-NMeF-amBCP)] (cyclo([NMeA][X57][Nle][Phe(2-F)][Nle][NMeF][X1][PhLac]))	5070 nM
CCCC[C@@H]1NC(=O)[C@H](Cc2nccs2)NC(=O)[C@H](C)N(C)C(=O)[C@H](Cc2ccccc2)OC(=O)C23CC(CNC(=O)[C@H](Cc4ccccc4)N(C)C(=O)[C@H](CCCC)NC(=O)[C@H](Cc4ccccc4F)NC1=O)(C2)C3 [compound 320, cyclo(FLac-NMeA-2TzA-Nle-Phe2F-Nle-NMeF-amBCP)] (cyclo([NMeA][Ala(thiazol-2-yl)][Nle][Phe(2-F)][Nle][NMeF][X1][PhLac]))	4360 nM
CCCC[C@@H]1NC(=O)[C@H](Cc2ncc(Cl)cn2)NC(=O)[C@H](C)N(C)C(=O)[C@H](Cc2ccccc2)OC(=O)C23CC(CNC(=O)[C@H](Cc4ccccc4)N(C)C(=O)[C@H](CCCC)NC(=O)[C@H](Cc4ccccc4F)NC1=O)(C2)C3 [compound 321, cyclo(FLac-NMeA-Ala2Pyrim5Cl-Nle-Phe2F-Nle-NMeF-amBCP)] (cyclo([NMeA][X67][Nle][Phe(2-F)][Nle][NMeF][X1][PhLac]))	617 nM
CCCC[C@@H]1NC(=O)[C@H](Cc2cnccn2)NC(=O)[C@H](C)N(C)C(=O)[C@H](Cc2ccccc2)OC(=O)C23CC(CNC(=O)[C@H](Cc4ccccc4)N(C)C(=O)[C@H](CCCC)NC(=O)[C@H](Cc4ccccc4F)NC1=O)(C2)C3 [compound 322, cyclo(FLac-NMeA-AlaPyrz-Nle-Phe2F-Nle-NMeF-amBCP)] (cyclo([NMeA][Ala(2-pyrazinyl)][Nle][Phe(2-F)][Nle][NMeF][X1][PhLac]))	2310 nM
CCCC[C@@H]1NC(=O)[C@H](Cc2ccncc2)NC(=O)[C@H](CCCNC(=N)N)NC(=O)[C@H](Cc2cccc3ccccc23)NC(=O)CSC[C@@](C)(C(N)=O)NC(=O)[C@H](Cc2cccnc2)N(C)C(=O)[C@H](CCCC)NC(=O)[C@H](Cc2ccc(O)cc2)NC1=O [compound 333, cyclo(INal-R-4Pal-Nle-Y-Nle-NMe3Pal-aMeCl-ClAc)] ({CH2CO}-[1Nal]R[4Pal][Nle]Y[Nle][NMe3Pal][αMeC]-NH2; thioether N-8)	19.9 nM
Cc1cccc(C[C@H]2C(=O)NCC34CC(C3)(C4)C(=O)O[C@@H](Cc3ccccc3)C(=O)N(C)[C@@H](C)C(=O)N[C@@H](Cc3cncnc3)C(=O)N[C@@H](CC3CC3)C(=O)N[C@@H](Cc3ccccc3F)C(=O)N[C@@H](CCC3CC3)C(=O)N2C)c1 [compound 334, cyclo(FLac-NMeA-PyrimAla-cPrA-Phe2F-hcPrA-NMePhe3Me-amBCP)] (cyclo([Ala(cPr)][Phe(2-F)][X31][NMePhe(3-Me)][X1][PhLac][NMeA][Ala(pyrimidin-5-yl)]))	2 nM
